Assay results published in patent US20260209299A1, “TROP2 IMMUNOGENIC PEPTIDE” (ASTON SCIENCE INC., priority 2023, published 2026).

Key:
[1] = tested on: Type 1 helper T cells (CD4^+IFN-γ^+); test: FACS analysis of Type 1 helper T cells (CD4+IFN-γ+) after peptide treatment of PBMCs; format: cell-based, human; settings: for Combined Score: (A value×0.8)+(B value×0.2); for IFN-gamma − IL-10: A value: difference between distribution of IFN-γ secreting T cells and distribution of IL-10 secretion; for IFN-gamma − Treg: B value: difference between distribution of IFN-γ secreting T cells and Treg distribution; for IFN-gamma (Th1, CD4+): FACS, healthy human PBMCs, peptide 10 μg/ml with 1 μg/ml anti-CD3, 72 hours, then PMA/ionomycin + GolgiPlug 6 hours; for stimulation of Type 1 helper T cells (CD4+IFN-γ+), flow cytometry plot: FIG. 1, peptide together with PMA, ionomycin; for effect of stimulating Type 1 helper T cells while not stimulating Type 2 helper T cells and regulatory T cells: overall FACS conclusion, Table 2
Description: (§1) To this end, the degree of stimulation of Type 1 helper T cells (CD4^+IFN-γ^+), stimulation of interleukin 10 (IL-10)-producing regulatory T cells (CD4^+IL-10+), stimulation of regulatory T cells (CD4^+CD25^+Foxp3^+), and stimulation of Type 2 helper T cells secreting IL-4 and Th17 cells secreting IL-17 according to the treatment with the immunogenic peptide were confirmed.
(§2) Healthy human peripheral blood mononuclear cells (PBMCs; 2,000,000 cells per well) were cultured in 96× round bottom well plates in the presence or absence of anti-CD3 (clone HIT) and peptide at the indicated ratios.
(§3) Specifically, the peptide synthesized in Example 1 at a concentration of 10 μg/ml was cultured with 1 μg/ml of anti-CD3 in a 37° C. incubator for 72 hours. The culture medium consisted of complete RPMI1640 medium supplemented with 10% fetal bovine serum, 10 mM HEPES, 50 µM B-ME, and penicillin/streptomycin/L-glutamine. After 72 hours of culture, the cells were stimulated with Phorbol 12-myristate 13-acetate (50 ng/ml) and Ionomycine (1 μg/mL), which are intracellular cytokine secretion stimulators. To prevent cytokine secretion into the culture medium, the cells were co-stimulated with GolgiPlug, a protein transport inhibitor, at a concentration of 1/100 diluted in PBS for 6 hours in a 37° C. incubator. After stimulation, the cells were washed twice with PBS.
(§4) To determine only the viable cells among the PBMC cells, the cells were labeled with eFlor780-conjugated Fixable Viability dye diluted 1:100 in PBS for 15 minutes at 4° C., and washed twice with stain buffer after 15 minutes. After washing, the cells were surface-labeled with BV421-conjugated anti-CD4 (clone RPA-T4) and PE-Cy5-conjugated anti-CD25 (clone 2A3) antibodies diluted 1:100 in stain buffer for 30 minutes at 4° C. Then, the cells labeled with cell surface proteins were washed twice with stain buffer. Next, to detect cytokines secreted intracellularly, the cells were fixed for 1 hour at room temperature with fixation buffer and then washed with permeabilization buffer. To enable antibodies to detect intracellular cytokines, the fixed cells were labeled overnight at 4° C. with PerCP-Cy5. 5-conjugated anti-IFN-g (clone 4S. B3), Brilliant Violet 510-conjugated anti-IL-4 (clone MP4-25D2), anti-Foxp3 (clone PCH101), and PE-conjugated anti-IL-10 diluted 1:100 in permeabilization (clone JES3-19F1) buffer. Then, the cytokine-labeled cells were washed twice with stain buffer, and cell flow assays were performed using an Attune NxT Acoustic Focusing Cytometer (Invitrogen). Data analysis was performed using Flowjo v10.7.1 software (FlowJo).
1) Calculate the difference between the distribution of IFN-γ secreting T cells and the distribution of IL-10 secretion (A value),
2) Calculate the difference between the distribution of IFN-γ secreting T cells and the Treg distribution (B value),
3) Use the formula “(A value×0.8)+(B value×0.2)” as the final combined scoring, and
(§5) The activity results of the immunogenic peptide candidate group were confirmed by first isolating CD4^+ T cells (helper T cells) from PBMCs, and then classifying the isolated cells into Type 1 helper T cells (CD4^+IFN-γ^+), Type 2 helper T cells (CD4^+IL-4^+), regulatory T cells (CD4^+CD25^+Foxp3^+), and interleukin-10 (IL-10)-producing regulatory T cells (CD4^+IL-10^+) and analyzing the results.

[2] = tested on: interleukin 10 (IL-10)-producing regulatory T cells (CD4^+IL-10^+); test: FACS analysis of IL-10-producing regulatory T cells (CD4+IL-10+) after peptide treatment of PBMCs; format: cell-based; settings: healthy human PBMCs, peptide 10 μg/ml with 1 μg/ml anti-CD3, 72 hours, then PMA/ionomycin + GolgiPlug 6 hours
Description: as §2, §3, §4

[3] = tested on: regulatory T cells (CD4^+CD25^+Foxp3^+); test: FACS analysis of regulatory T cells (CD4+CD25+Foxp3+) after peptide treatment of PBMCs; format: cell-based; settings: healthy human PBMCs, peptide 10 μg/ml with 1 μg/ml anti-CD3, 72 hours, then PMA/ionomycin + GolgiPlug 6 hours
Description: as §1, §2, §3, §4, §5

[4] = tested on: Type 2 helper T cells (CD4^+IL-4^+); test: FACS analysis of Type 2 helper T cells (CD4+IL-4+) after peptide treatment of PBMCs; format: cell-based, human; settings: FIG. 2; peptide together with PMA, ionomycin
Description: as §1, §2, §3
as §4, with “(FlowJo). […]” for “(FlowJo).”

[5] = tested on: interferon-gamma (IFN-γ)-forming T cells; test: ELISpot assay of IFN-γ-forming T cells using PBMC; format: cell-based; settings: FIG. 5; human PBMCs, peptide 10 μg/mL, 70-72 hours
Description: The frequency of interferon-gamma (IFN-γ, 3420-4HPW-10, MabTech, Stockholm, Sweden) and interleukin-10 (IL-10, 3430-4HPW-10, MabTech)-forming T cells was assessed using the ELISpot assay.
Specifically, the pre-coated plates were washed four times with 200 μL/well of PBS. Human PBMCs (PCS-800-011, ATCC, Virginia, USA) 2×10^6/mL were dispensed onto the coated plate, and TROP2 peptides were dispensed at 10 μg/mL each and reacted with the PBMCs. The plate reacted under a total volume of 200 μL/well was incubated at 5% CO2, 37° C. for 70-72 hours. Then, the plate was washed 5 times with 200 μL of PBS, and 200 μL of diluted detection antibody (IFN-γ:7-B6-1-biotin; IL-10:12G8-biotin) was added to the wells of the plate, and then reacted at room temperature for 2 hours. After the reaction, the plate was washed 5 times with 200 μL of PBS, and 1:1000 diluted streptavidin-HRP was added at 100 μL/well, followed by reaction at room temperature for 1 hour. Then, the resulting product was washed 5 times with 200 μL of PBS, 100 μL/well of TMB substrate solution was added and reacted at RT for up to 5-10 minutes, and then the spots were counted using the AID iSpot reader system (AID, Strassberg, Germany).

MDA-MB-231 cell line = test: Antitumor effect of cancer vaccine alone in Xenograft cancer mouse model; format: in vivo, athymic Balb/C nude mice; settings: peptide + CFA/IFA + mGM-CSF, 100 μg per mouse subcutaneously on days 1, 8, 15, 22; vs control group G1
Description: Five-week-old athymic Balb/C nude mice weighing 16 to 18 g were purchased and acclimated for at least 3 to 7 days.
The MDA-MB-231 cell line, a human-derived triple-negative breast cancer cell line, was suspended at 5×10^6 cells per individual in 200 μl of a 1:1 mixture of PBS and Matrigel and injected subcutaneously into the axillary region between the right scapular area and the thoracic wall of the mouse.
On Day 16 after MDA-MB-231 cell transplantation, 32 mice (mean tumor size 143.8±2.9 mm^3) with tumor sizes reaching approximately 150 mm^3 were selected and assigned to each group of 8 mice.
Each group was divided into Group 1 (G1): PBS+CFA/IFA, Group 2 (G2): SEQ ID NO: 3 peptide+CFA/IFA+mGM-CSF, Group 3 (G3): SEQ ID NO: 10 peptide+CFA/IFA+mGM-CSF, and Group 4 (G4): SEQ ID NO: 17 peptide+CFA/IFA+mGM-CSF.
Next, the immunogenic peptide (TROP2 peptide) according to the present invention was administered subcutaneously at a dose of 100 μg per mouse on days 1, 8, 15, and 22 (the 16th day after cell transplantation was designated as Day 0, and the following day was designated as Day 1) for a total of 4 times, and the tumor size for each individual was calculated 11 times (0, 1, 4, 7, 11, 14, 18, 21, 25, 28, and 32) from Day 0 to Day 32. Then, the tumor growth change rate was calculated by comparison with the control group of each Test Group.

Sequence | Combined Score [1] | IFN-gamma − IL-10 [1] | IFN-gamma − Treg [1] | IFN-gamma (Th1, CD4+) [1] | IL-10 (Th2, CD4+) [2] | Treg (CD25+/Foxp3) [3] | stimulation of Type 1 helper T cells (CD4+IFN-γ+), flow cytometry plot [1] | effect of stimulating Type 1 helper T cells while not stimulating Type 2 helper T cells and regulatory T cells [1] | stimulation of Type 2 helper T cells (CD4+IL-4+), flow cytometry plot [4] | number of cells secreting IFN-γ (ELISpot spots) [5] | TGI rate (%) at Day 32 (MDA-MB-231 cell line)
AGLIAVIVVVVVALVAGMAVLVITNRRKSGKYKK [SEQ ID NO: 24] | 11.88 | 12.35% | 10.00% | 17.10% | 4.75% | 7.10% |  |  |  |  | 
ELRONTSQKAAGDVD (ELRQNTSQKAAGDVD) [SEQ ID NO: 17] | 20.02 | 21.27% | 15.03% | 23.20% | 1.93% | 8.17% | stimulated Type 1 helper T cells (CD4^+IFN-γ^+) to a high degree | most excellent | hardly stimulated Type 2 helper T cells (CD4^+IL-4^+) | dramatically increased the secretion of IFN-γ | 57.2%
EPLQVERTLIYYLDE [SEQ ID NO: 19] |  |  |  |  |  |  |  |  |  | dramatically increased the secretion of IFN-γ | 
LVRPSEHALVDNDGL [SEQ ID NO: 10] | 17.84 | 18.97% | 13.34% | 21.00% | 2.03% | 7.66% | stimulated Type 1 helper T cells (CD4^+IFN-γ^+) to a high degree | most excellent | hardly stimulated Type 2 helper T cells (CD4^+IL-4^+) | dramatically increased the secretion of IFN-γ | 38.5%
PKFSMKRLTAGLIAVIV [SEQ ID NO: 22] | 11.25 | 11.75% | 9.25% | 16.90% |  | 7.65% |  |  |  |  | 
RERYRLHPKFVAAVH [SEQ ID NO: 15] | 12.27 | 12.87% | 9.87% | 17.80% | 4.93% | 7.93% |  |  |  |  | 
RGEPLQVERTLIYYL [SEQ ID NO: 18] | 19.62 | 20.80% | 14.89% | 22.90% | 2.10% | 8.01% | stimulated Type 1 helper T cells (CD4^+IFN-γ^+) to a high degree | most excellent | hardly stimulated Type 2 helper T cells (CD4^+IL-4^+) |  | 
SKCLLLKARMSAPKN [SEQ ID NO: 8] | 11.06 | 11.65% | 8.68% | 16.90% | 5.25% | 8.22% |  |  |  |  | 
SLRCDELVRTHHILIDLRHRPTAGAFN [SEQ ID NO: 11] | 11.16 | 11.71% | 8.97% | 17.20% | 5.49% | 8.23% |  |  |  |  | 
TLIYYLDEIPPKFSM [SEQ ID NO: 20] | 10.26 | 10.82% | 8.03% | 16.10% | 5.28% | 8.07% |  |  |  |  | 
